Where a name gives a salt, the structure may show the parent alone.

The IC90 is the concentration needed for an effect of 90%.

The subject of one test is Acinetobacter baumannii ATCC17961. The test can be described thus: Antimicrobial susceptibility testing: 90% growth inhibitory concentration (IC90) determination. Conditions: Acinetobacter baumannii ATCC17961; Iso-Sensitest broth; growth by OD 600 nm over 16 h; 90% growth inhibitory concentration; read-out: ATCC 17961 IC90. The format is cell-based. The method, then: Antimicrobial Susceptibility Testing:
90% Growth Inhibitory Concentration (IC90) Determination
The in vitro antimicrobial activity of the compounds was determined according to the following procedure:
The assay used a 10-points Iso-Sensitest broth medium to measure quantitatively the in vitro activity of the compounds against Acinetobacter baumannii ATCC17961.
Stock compounds in DMSO were serially twofold diluted (e.g. range from 50 to 0.097 μM final concentration) in 384 wells microtiter plates and inoculated with 49 μl the bacterial suspension in Iso-Sensitest medium to have a final cell concentration of ˜5×10^(5) CFU/ml in a final volume/well of 50 ul/well. Microtiter plates were incubated at 35±2° C.
Bacterial cell growth was determined with the measurement of optical density at λ=600 nm each minutes over a time course of 16 h. Growth inhibition was calculated during the logarithmic growth of the bacterial cells with determination of the concentration inhibiting 50% (IC50) and 90% (IC90) of the growth.
Table 1 provides the 90% growth inhibitory concentrations (IC90) in micromoles per liter of the compounds of present invention obtained against the strain Acinetobacter baumannii ATCC17961.
On to `Cn1c(-c2cn(-c3ncccn3)nc2C(F)(F)F)cnc1C(=O)Nc1ccc(C(=O)N2CCN(C(=O)[C@@H]3[C@@H](O)CC[N+]3(C)C)CC2)c(Cl)c1` [Example B3, N-[3-chloro-4-[4-[(2S,3S)-3-hydroxy-1,1-dimethyl-pyrrolidin-1-ium-2-carbonyl]piperazine-1-carbonyl]phenyl]-1-methyl-5-[1-pyrimidin-2-yl-3-(trifluoromethyl)pyrazol-4-yl]imidazole-2-carboxamide; formate], for which the IC90 is 3800 nM.
On the same count and under the same terms, in the case of `Cn1c(-c2cn(-c3ncccn3)nc2C(F)(F)F)cnc1C(=O)Nc1ccc(C(=O)N2CCN(C(=O)C3CC[N+](C)(C)CC3O)CC2)c(Cl)c1` (stereo not drawn) [Example B4, N-[3-chloro-4-[4-(3-hydroxy-1,1-dimethyl-piperidin-1-ium-4-carbonyl)piperazine-1-carbonyl]phenyl]-1-methyl-5-[1-pyrimidin-2-yl-3-(trifluoromethyl)pyrazol-4-yl]imidazole-2-carboxamide; formate] it was 1900 nM.
The same measure, in the same setting: the same measure for `COc1ccc(-n2cc(-c3cnc(C(=O)Nc4ccc(C(=O)N5CCN(C(=O)[C@@H]6CC[N+](C)(C)C[C@H]6O)CC5)c(Cl)c4)n3C)c(C(F)(F)F)n2)nc1` [Example B5, N-[3-chloro-4-[4-[(3S,4R)-3-hydroxy-1,1-dimethyl-piperidin-1-ium-4-carbonyl]piperazine-1-carbonyl]phenyl]-5-[1-(5-methoxy-2-pyridyl)-3-(trifluoromethyl)pyrazol-4-yl]-1-methyl-imidazole-2-carboxamide]: 310 nM; for `COc1ccc(-n2cc(-c3cnc(C(=O)Nc4ccc(C(=O)N5CCN(C(=O)[C@@H]6C[C@@H](O)C[N+]6(C)C)CC5)c(Cl)c4)n3C)c(C(F)(F)F)n2)nc1` [Example B6, N-[3-chloro-4-[4-[(2S,4R)-4-hydroxy-1,1-dimethyl-pyrrolidin-1-ium-2-carbonyl]piperazine-1-carbonyl]phenyl]-5-[1-(5-methoxy-2-pyridyl)-3-(trifluoromethyl)pyrazol-4-yl]-1-methyl-imidazole-2-carboxamide; formate]: 360 nM.
The same measure, in the same setting: the same measure for `Cn1c(-c2cn(-c3ccc([N+](=O)[O-])cn3)nc2C(F)(F)F)cnc1C(=O)Nc1ccc(C(=O)N2CCN(C(=O)[C@@H]3[C@@H](O)CC[N+]3(C)C)CC2)c(Cl)c1` [Example B7, N-[3-chloro-4-[4-[(2S,3S)-3-hydroxy-1,1-dimethyl-pyrrolidin-1-ium-2-carbonyl]piperazine-1-carbonyl]phenyl]-1-methyl-5-[1-(5-nitro-2-pyridyl)-3-(trifluoromethyl)pyrazol-4-yl]imidazole-2-carboxamide; formate]: 1600 nM.
As for `Cn1c(-c2cn(-c3ncccn3)nc2C(F)(F)F)cnc1C(=O)Nc1ccc(C(=O)N2CC[N+](C)(C)CC2)c(Cl)c1` [Example B9, 4-(2-chloro-4-(1-methyl-5-(1-(pyrimidin-2-yl)-3-(trifluoromethyl)-1H-pyrazol-4-yl)-1H-imidazole-2-carboxamido)benzoyl)-1,1-dimethylpiperazin-1-ium], the IC90 came out at 5200 nM.
The same measure, in the same setting: in the case of `Cn1c(-c2cn(-c3ncccn3)nc2C(F)(F)F)cnc1C(=O)Nc1ccc(C(=O)N2CCN(C(=O)C3CC[N+](C)(CC(N)=O)CC3)CC2)c(Cl)c1` (stereo not drawn) [Example C2, N-[4-[4-[1-(2-amino-2-oxo-ethyl)-1-methyl-piperidin-1-ium-4-carbonyl]piperazine-1-carbonyl]-3-chloro-phenyl]-1-methyl-5-[1-pyrimidin-2-yl-3-(trifluoromethyl)pyrazol-4-yl]imidazole-2-carboxamide; formate] it was 1100 nM.
The same measure, in the same setting: the same measure for `Cn1c(-c2cn(-c3ccc(N)cn3)nc2C(F)(F)F)cnc1C(=O)Nc1ccc(C(=O)N2CCN(C(=O)C3CC[N+](C)(C)CC3)CC2)c(Cl)c1` [Example D3, 5-[1-(5-amino-2-pyridyl)-3-(trifluoromethyl)pyrazol-4-yl]-N-[3-chloro-4-[4-(1,1-dimethylpiperidin-1-ium-4-carbonyl)piperazine-1-carbonyl]phenyl]-1-methyl-imidazole-2-carboxamide; formate]: 150 nM.
Still for that read-out and setting: in the case of `Cn1c(-c2cn(-c3ccc(N)cn3)nc2C(F)(F)F)cnc1C(=O)Nc1ccc(C(=O)N2CCN(C(=O)C3(O)CC[N+](C)(C)CC3)CC2)c(Cl)c1` [Example D10, 5-[1-(5-amino-2-pyridyl)-3-(trifluoromethyl)pyrazol-4-yl]-N-[3-chloro-4-[4-(4-hydroxy-1,1-dimethyl-piperidin-1-ium-4-carbonyl)piperazine-1-carbonyl]phenyl]-1-methyl-imidazole-2-carboxamide; formate] it was 330 nM.
For the molecule `Cn1c(-c2cn(-c3ccc(N)cn3)nc2C(F)(F)F)cnc1C(=O)Nc1ccc(C(=O)N2CCN(C(=O)C[N+]3(C)CCC(O)C3)CC2)c(Cl)c1` (stereo not drawn) [Example D11, 5-[1-(5-amino-2-pyridyl)-3-(trifluoromethyl)pyrazol-4-yl]-N-[3-chloro-4-[4-[2-(3-hydroxy-1-methyl-pyrrolidin-1-ium-1-yl)acetyl]piperazine-1-carbonyl]phenyl]-1-methyl-imidazole-2-carboxamide; formate], the IC90 is 210 nM.
On the same count and under the same terms, the same measure for `Cn1c(-c2cn(-c3ccc(N)cn3)nc2C(F)(F)F)cnc1C(=O)Nc1ccc(C(=O)NCC2CCN(C(=O)C3CC[N+](C)(C)CC3)CC2)c(Cl)c1` [Example D12, 5-[1-(5-amino-2-pyridyl)-3-(trifluoromethyl)pyrazol-4-yl]-N-[3-chloro-4-[[1-(1,1-dimethylpiperidin-1-ium-4-carbonyl)-4-piperidyl]methylcarbamoyl]phenyl]-1-methyl-imidazole-2-carboxamide; formate]: 1300 nM; for `Cn1c(-c2cn(-c3ccc(N)cn3)nc2C(F)(F)F)cnc1C(=O)Nc1ccc(C(=O)N2CCN(C(=O)[C@@H]3COCC[N+]3(C)C)CC2)c(Cl)c1` [Example D13, 5-[1-(5-amino-2-pyridyl)-3-(trifluoromethyl)pyrazol-4-yl]-N-[3-chloro-4-[4-[(3S)-4,4-dimethylmorpholin-4-ium-3-carbonyl]piperazine-1-carbonyl]phenyl]-1-methyl-imidazole-2-carboxamide; formate]: 420 nM.
As for `Cn1c(-c2cn(-c3ccc(N)cn3)nc2C(F)(F)F)cnc1C(=O)Nc1ccc(C(=O)N2CCN(C(=O)[C@@H]3[C@@H](Oc4ccc(N)cn4)CC[N+]3(C)C)CC2)c(Cl)c1` [Example D14, N-[4-[4-[(2S,3S)-3-[(5-amino-2-pyridyl)oxy]-1,1-dimethyl-pyrrolidin-1-ium-2-carbonyl]piperazine-1-carbonyl]-3-chloro-phenyl]-5-[1-(5-amino-2-pyridyl)-3-(trifluoromethyl)pyrazol-4-yl]-1-methyl-imidazole-2-carboxamide; formate], the IC90 stood at 550 nM.
Same read-out and setting: the same measure for `Cn1c(-c2cn(-c3ccc(N)cn3)nc2C(F)(F)F)cnc1C(=O)Nc1ccc(C(=O)N2CCN(C(=O)[C@@H]3CC(O)CC[N+]3(C)C)CC2)c(Cl)c1` (stereo partly drawn) [Example D15, 5-[1-(5-Amino-2-pyridyl)-3-(trifluoromethyl)pyrazol-4-yl]-N-[3-chloro-4-[4-[(2S)-4-hydroxy-1,1-dimethyl-piperidin-1-ium-2-carbonyl]piperazine-1-carbonyl]phenyl]-1-methyl-imidazole-2-carboxamide;formate]: 550 nM; for `Cn1c(-c2cn(-c3cnc(N)cn3)nc2C(F)(F)F)cnc1C(=O)Nc1ccc(C(=O)N2CCN(C(=O)C3CC[N+](C)(C)CC3)CC2)c(Cl)c1` [Example D16, 5-[1-(5-aminopyrazin-2-yl)-3-(trifluoromethyl)pyrazol-4-yl]-N-[3-chloro-4-[4-(1,1-dimethylpiperidin-1-ium-4-carbonyl)piperazine-1-carbonyl]phenyl]-1-methyl-imidazole-2-carboxamide]: 320 nM; for `Cn1c(-c2cn(-c3ccc(N)cn3)nc2C(F)(F)F)cnc1C(=O)Nc1ccc(C(=O)N[C@H]2[C@@H]3CN(C(=O)[C@@H]4C[C@@H](O)C[N+]4(C)C)C[C@@H]32)c(Cl)c1` [Example D17, 5-[1-(5-amino-2-pyridyl)-3-(trifluoromethyl)pyrazol-4-yl]-N-[3-chloro-4-[[(exo)-3-[(2S,4R)-4-hydroxy-1,1-dimethyl-pyrrolidin-1-ium-2-carbonyl]-3-azabicyclo[3.1.0]hexan-6-yl]carbamoyl]phenyl]-1-methyl-imidazole-2-carboxamide]: 300 nM.

Still in this test, the particulars now being: Acinetobacter baumannii, ATCC17961, 16 h, read-out: ATCC 17961 IC90.
Consider `Cn1c(-c2cn(-c3ncccn3)nc2C(F)(F)F)cnc1C(=O)Nc1ccc(C(=O)N2CCN(C(=O)C3CC[N+](C)(CC4CNC4)CC3)CC2)c(Cl)c1` (stereo not drawn) [Example C1, N-[4-[4-[1-(Azetidin-3-ylmethyl)-1-methyl-piperidin-1-ium-4-carbonyl]piperazine-1-carbonyl]-3-chloro-phenyl]-1-methyl-5-[1-pyrimidin-2-yl-3-(trifluoromethyl)pyrazol-4-yl]imidazole-2-carboxamide; formate], for which the IC90 worked out at 410 nM.
On the same count and under the same terms, the same measure for `Cn1c(-c2cn(-c3ccc(N)cn3)nc2C(F)(F)F)cnc1C(=O)Nc1ccc(C(=O)N2CCN(C(=O)[C@@H]3C[C@@H](O)C[N+]3(C)C)CC2)c(Cl)c1` [Example D1, 5-[1-(5-Amino-2-pyridyl)-3-(trifluoromethyl)pyrazol-4-yl]-N-[3-chloro-4-[4-[(2S,4R)-4-hydroxy-1,1-dimethyl-pyrrolidin-1-ium-2-carbonyl]piperazine-1-carbonyl]phenyl]-1-methyl-imidazole-2-carboxamide; formate]: 310 nM.

The values are drawn from patent US12655126B2, “Imidazole-pyrazole derivatives as antibacterials” (Hoffmann-La Roche Inc., priority 2020, dated 2026).
